Measurements published in ChEMBL document CHEMBL2331431, “Anti-inflammatory lanostanoids and lactone derivatives from Antrodia camphorata” (J Nat Prod, 2013).
In brackets after ≈: the same amount, converted by molar mass.

Tests used:
[1] = target: T1, Nitric oxide synthase, inducible (Mus musculus, UniProt P29477); assay: Inhibition of iNOS-mediated nitric oxide production in LPS-stimulated mouse RAW264.7 cells after 24 hrs by Griess reaction analysis; type: cell-based
T1 sequence (P29477 whole entry): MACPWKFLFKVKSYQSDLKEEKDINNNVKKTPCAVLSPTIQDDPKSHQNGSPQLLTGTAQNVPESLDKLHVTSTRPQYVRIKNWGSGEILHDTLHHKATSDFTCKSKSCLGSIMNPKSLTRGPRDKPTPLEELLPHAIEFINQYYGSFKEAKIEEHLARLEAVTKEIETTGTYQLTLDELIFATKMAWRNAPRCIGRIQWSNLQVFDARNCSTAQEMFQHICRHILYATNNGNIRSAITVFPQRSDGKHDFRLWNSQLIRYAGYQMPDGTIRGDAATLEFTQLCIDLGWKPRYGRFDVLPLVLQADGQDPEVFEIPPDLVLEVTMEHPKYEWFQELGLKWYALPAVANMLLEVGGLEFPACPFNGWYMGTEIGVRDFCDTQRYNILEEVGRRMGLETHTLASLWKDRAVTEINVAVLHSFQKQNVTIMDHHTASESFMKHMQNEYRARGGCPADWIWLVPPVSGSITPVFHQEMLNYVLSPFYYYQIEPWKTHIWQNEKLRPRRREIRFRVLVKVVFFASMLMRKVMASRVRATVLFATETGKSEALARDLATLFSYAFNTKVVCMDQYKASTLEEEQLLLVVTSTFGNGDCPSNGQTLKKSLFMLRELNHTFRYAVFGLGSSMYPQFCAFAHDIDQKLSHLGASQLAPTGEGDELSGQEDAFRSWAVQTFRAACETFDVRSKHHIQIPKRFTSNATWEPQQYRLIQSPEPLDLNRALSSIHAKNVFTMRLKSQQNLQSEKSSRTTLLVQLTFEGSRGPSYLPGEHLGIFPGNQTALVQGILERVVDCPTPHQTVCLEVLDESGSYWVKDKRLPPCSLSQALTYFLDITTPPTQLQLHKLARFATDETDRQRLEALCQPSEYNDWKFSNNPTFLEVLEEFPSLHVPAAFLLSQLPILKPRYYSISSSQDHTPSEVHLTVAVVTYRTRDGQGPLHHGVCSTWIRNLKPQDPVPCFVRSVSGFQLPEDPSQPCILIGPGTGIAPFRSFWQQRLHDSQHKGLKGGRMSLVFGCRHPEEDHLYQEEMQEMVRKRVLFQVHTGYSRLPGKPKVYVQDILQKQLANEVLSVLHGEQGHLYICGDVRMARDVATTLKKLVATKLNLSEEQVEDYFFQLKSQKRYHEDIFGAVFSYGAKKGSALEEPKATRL

[2] = system: RAW264.7; assay: Cytotoxicity against LPS-stimulated mouse RAW264.7 cells at 20 ug/ml; type: cell-based
[3] = system: K562; assay: Cytotoxicity against human K562 cells assessed as inhibition of cell proliferation after 24 hrs; type: functional, cell-based; conditions: K562, 24 h
[4] = system: HL-60; assay: Cytotoxicity against human HL60 cells assessed as inhibition of cell proliferation after 24 hrs; type: functional, cell-based; conditions: HL-60, 24 h

| IC50 [1] [µM] | SMILES | Activity [2] | IC50 [3] [µg/mL] | IC50 [4] [µg/mL] |
| --- | --- | --- | --- | --- |
| 5 | C/C(=C\CC[C@@H](C)[C@H]1CC[C@@]2(C)C3=C([C@H](O)C[C@]12C)[C@@]1(C)CCC(=O)C(C)(C)[C@@H]1CC3=O)C(=O)O | Non-toxic | – | – |
| > 20 | COc1cc(CCC(=O)O)oc(=O)c1 | Non-toxic | – | – |
| 5 | C/C(=C\CC[C@@H](C)[C@H]1CC[C@@]2(C)C3=C(C(=O)C[C@]12C)[C@@]1(C)CCC(=O)C(C)(C)[C@@H]1CC3=O)C(=O)O | Non-toxic | – | – |
| 8.9 | COC(=O)C(C)CC(=O)C[C@@H](C)[C@H]1CC(=O)[C@@]2(C)C3=C(C(=O)C(=O)[C@]12C)[C@@]1(C)CCC(=O)C(C)(C)[C@@H]1CC3=O (some centres not stated) | Non-toxic | – | – |
| 6.2 | CCOC(=O)C(C)CC(=O)C[C@@H](C)[C@H]1CC(=O)[C@@]2(C)C3=C(C(=O)C(=O)[C@]12C)[C@@]1(C)CCC(=O)C(C)(C)[C@@H]1CC3=O (some centres not stated) | Non-toxic | – | – |
| 4.9 | CC(=O)O[C@H]1C[C@H]([C@H](C)CC(=O)CC(C)C(=O)O)[C@@]2(C)CC(=O)C3=C(CC[C@H]4C(C)(C)C(=O)CC[C@]34C)[C@]12C (some centres not stated) | Non-toxic | – | – |
| > 20 | CC(CC(=O)C[C@@H](C)C1=CC(=O)[C@@]2(C)C3=C(C(=O)C[C@]12C)[C@@]1(C)CCC(=O)C(C)(C)[C@@H]1C[C@@H]3O)C(=O)O (some centres not stated) | Non-toxic | – | – |
| > 20 | COCC1(O)OC(=O)C=C1C (racemic) | Non-toxic | – | – |
| 10.8 | CCOC(=O)CC[C@@H](C)[C@H]1CC(=O)[C@@]2(C)C3=C(C(=O)C[C@]12C)[C@@]1(C)CCC(=O)C(C)(C)[C@@H]1C[C@@H]3O [ETHYL LUCIDENATE A] | Non-toxic | 30 (≈ 61.6 µM) | 30 (≈ 61.6 µM) |
| > 20 | CCOC(=O)CC[C@@H](C)[C@H]1CC(=O)[C@@]2(C)C3=C(C(=O)C[C@]12C)[C@@]1(C)CCC(=O)C(C)(C)[C@@H]1CC3=O [ETHYL LUCIDENATE F] | Non-toxic | – | – |
